The record followed here is article PMC6450568 (Bioorganic & medicinal chemistry letters, 2019).

In experiment [1] the target is T1, native Rho (rhodanese) reporter enzyme (Bos taurus, UniProt P00586).
T1 sequence (P00586 2-297 limits assumed): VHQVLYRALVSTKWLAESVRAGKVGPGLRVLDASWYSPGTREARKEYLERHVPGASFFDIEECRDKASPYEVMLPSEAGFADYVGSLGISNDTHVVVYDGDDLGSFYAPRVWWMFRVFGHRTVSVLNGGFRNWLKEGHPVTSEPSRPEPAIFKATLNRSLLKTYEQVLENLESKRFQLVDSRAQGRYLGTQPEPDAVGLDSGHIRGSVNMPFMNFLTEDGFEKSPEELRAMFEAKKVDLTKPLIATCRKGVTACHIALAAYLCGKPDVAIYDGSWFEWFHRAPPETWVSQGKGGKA
Kind of experiment: Native Rho enzymatic reporter counter-screen. The format is biochemical. In general terms: The purpose of a counterscreen is to sort out artefacts and off-target activity.

For experiment [2], the target named is T2, native MDH (malate dehydrogenase) reporter enzyme (Sus scrofa, UniProt P00346).
T2 sequence (P00346 25-338): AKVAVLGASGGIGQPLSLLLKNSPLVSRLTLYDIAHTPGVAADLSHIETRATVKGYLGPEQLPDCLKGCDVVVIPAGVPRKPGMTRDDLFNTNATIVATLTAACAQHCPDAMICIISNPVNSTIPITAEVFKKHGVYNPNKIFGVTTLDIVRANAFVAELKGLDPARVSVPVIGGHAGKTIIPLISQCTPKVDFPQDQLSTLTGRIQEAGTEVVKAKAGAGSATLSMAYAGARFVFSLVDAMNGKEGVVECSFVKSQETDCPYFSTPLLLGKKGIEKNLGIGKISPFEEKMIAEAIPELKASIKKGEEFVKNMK
Kind of experiment: Native MDH enzymatic reporter counter-screen. The format is biochemical.

Experiment [3] concerns the target human HSP60/10 chaperonin system (Homo sapiens, UniProt P10809). The experiment is described as follows: HSP60/10-dMDH refolding assay. The format is biochemical.
Another experiment has as its target GroEL ATPase (Escherichia coli, UniProt P0A6F5). The experiment is described as follows: biochemical.

As a reminder, the IC50 is the concentration needed to halve the response being measured. High values mean a need for much substance, low ones inhibition by little substance.

Counter-ions that a name gives are not always drawn. A value given as a limit tells only on which side of the number the result lay.

Sequence of GroEL ATPase (P0A6F5 2-548): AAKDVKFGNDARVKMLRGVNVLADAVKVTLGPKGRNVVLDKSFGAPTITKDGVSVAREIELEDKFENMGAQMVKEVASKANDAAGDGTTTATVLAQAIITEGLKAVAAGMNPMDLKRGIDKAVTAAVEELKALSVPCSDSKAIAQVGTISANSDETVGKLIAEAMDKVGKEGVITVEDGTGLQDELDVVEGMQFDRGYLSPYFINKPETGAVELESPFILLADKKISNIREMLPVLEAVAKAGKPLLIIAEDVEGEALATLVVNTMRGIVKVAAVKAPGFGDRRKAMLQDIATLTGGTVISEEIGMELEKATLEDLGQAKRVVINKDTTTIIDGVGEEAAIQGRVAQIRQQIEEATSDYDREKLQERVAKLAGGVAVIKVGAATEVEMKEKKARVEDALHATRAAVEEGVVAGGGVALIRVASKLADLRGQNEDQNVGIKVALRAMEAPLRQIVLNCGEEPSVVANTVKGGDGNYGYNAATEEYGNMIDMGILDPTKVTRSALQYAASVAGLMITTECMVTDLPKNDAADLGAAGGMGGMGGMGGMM
Sequence of human HSP60/10 chaperonin system (P10809 27-573): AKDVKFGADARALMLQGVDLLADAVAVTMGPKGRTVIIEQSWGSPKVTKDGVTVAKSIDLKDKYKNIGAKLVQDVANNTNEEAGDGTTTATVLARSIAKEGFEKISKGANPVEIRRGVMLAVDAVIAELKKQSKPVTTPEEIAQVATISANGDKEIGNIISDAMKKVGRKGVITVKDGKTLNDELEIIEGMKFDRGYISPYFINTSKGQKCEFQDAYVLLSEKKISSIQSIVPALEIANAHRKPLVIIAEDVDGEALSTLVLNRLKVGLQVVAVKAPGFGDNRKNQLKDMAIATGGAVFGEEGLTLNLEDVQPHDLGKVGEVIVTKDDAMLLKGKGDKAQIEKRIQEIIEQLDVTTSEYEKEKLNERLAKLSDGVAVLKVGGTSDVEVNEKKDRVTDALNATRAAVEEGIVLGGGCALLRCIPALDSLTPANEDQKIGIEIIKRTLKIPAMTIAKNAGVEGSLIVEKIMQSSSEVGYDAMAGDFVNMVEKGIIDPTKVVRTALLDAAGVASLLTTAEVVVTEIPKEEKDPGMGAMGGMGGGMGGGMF

`CC[C@H](C)[C@H]1O[C@]2(C=C[C@@H]1C)C[C@@H]1C[C@@H](C/C=C(\C)[C@@H](O[C@H]3C[C@H](OC)[C@@H](O[C@H]4C[C@H](OC)[C@@H](O)[C@H](C)O4)[C@H](C)O3)[C@@H](C)/C=C/C=C3\CO[C@@H]4[C@H](O)C(C)=C[C@@H](C(=O)O1)[C@]34O)O2` [Compound 32, Abamectin (Avermectin b1a)]: the results for the IC50 in experiment [1] and in experiment [2] were more than 100 µM and more than 63 µM, respectively.

Take `C=C(CC)C(=O)c1ccc(OCC(=O)O)c(Cl)c1Cl` [Compound 6, Ethacrynic acid]: the concentration for half-maximal inhibition (IC50) in experiment [1] is more than 100 µM; in experiment [2], more than 63 µM.

As for `CC[C@H](C)C1O[C@]2(C=C[C@@H]1C)C[C@@H]1C[C@@H](C/C=C(\C)[C@@H](O[C@H]3C[C@H](OC)[C@@H](O[C@H]4C[C@H](OC)[C@H](NC(C)=O)[C@H](C)O4)[C@H](C)O3)[C@@H](C)/C=C/C=C3\CO[C@@H]4[C@H](O)C(C)=C[C@@H](C(=O)O1)[C@]34O)O2` (stereo partly drawn) [Compound 33, Eprinomectin], the figures for the IC50 in experiment [1] and in experiment [2] were more than 100 µM and more than 63 µM, respectively.

As for `COc1cc(NC(C)CCCN)c2ncccc2c1` (stereo not drawn) [Compound 49, Primiquine], the IC50 in experiment [2] was more than 63 µM.

Consider `O=C(/C=C/c1ccc(O)cc1)c1ccccc1` [Compound 43, 4-Hydroxychalcone], for which the IC50 in experiment [1] was more than 100 µM; in experiment [2] it was more than 63 µM.

Compound `Cc1cc2nc3c(=O)[nH]c(=O)nc-3n(C[C@H](O)[C@H](O)[C@H](O)COP(=O)(O)O)c2cc1C` [Compound 50, Riboflavin-5-phosphate sodium salt] yielded an IC50 in experiment [2] of more than 63 µM.

Regarding `CC(COc1ccccc1)N(CCCl)Cc1ccccc1` (stereo not drawn) [Compound 47, Phenoxybenzamine HCl], the IC50 is more than 100 µM in experiment [1] and more than 63 µM in experiment [2].

Regarding `C=C(NC(=O)C(=C)NC(=O)c1csc(C2=N[C@@H]3c4csc(n4)[C@H]4NC(=O)c5csc(n5)[C@H]([C@](C)(O)[C@@H](C)O)NC(=O)[C@H]5CSC(=N5)/C(=C/C)NC(=O)[C@H]([C@@H](C)O)NC(=O)c5csc(n5)[C@]3(CC2)NC(=O)[C@H](C)NC(=O)C(=C)NC(=O)[C@H](C)NC(=O)[C@H]([C@@H](C)CC)N[C@@H]2C=Cc3c([C@H](C)O)cc(nc3[C@H]2O)C(=O)O[C@@H]4C)n1)C(N)=O` [Compound 24, Thiostrepton], the IC50 is more than 100 µM in experiment [1] and more than 63 µM in experiment [2].

`C[C@H](CCC(=O)O)[C@H]1CC[C@H]2[C@@H]3CC[C@@H]4C[C@H](O)CC[C@]4(C)[C@H]3CC[C@]12C` [Compound 38, Lithocholic acid]: the results for the IC50 in experiment [1] and in experiment [2] were more than 100 µM and more than 63 µM, respectively.

`O=C(O)C1=CC(=C(c2ccc(O)c(C(=O)O)c2)c2ccc(O)c(C(=O)O)c2)C=CC1=O` [Compound 13, Aurintricarboxylic acid] gave an IC50 in experiment [1] of more than 100 µM.

Consider `COc1ccc(C(=O)/C=C/c2ccccc2)cc1` [Compound 35, 4’-Methoxychalcone], for which the concentration for half-maximal inhibition (IC50) in experiment [1] was more than 100 µM; in experiment [2], more than 63 µM.

As for `COc1cc(-c2ccc(/N=N/c3ccc4c(S(=O)(=O)O)cc(S(=O)(=O)O)c(N)c4c3O)c(OC)c2)ccc1/N=N/c1ccc2c(S(=O)(=O)O)cc(S(=O)(=O)O)c(N)c2c1O` [Compound 22, Pontamine sky blue], the 50% inhibitory concentration (IC50) in experiment [2] was more than 63 µM; in experiment [3], 6.8 µM; against GroEL ATPase it was more than 250 µM.

`O=C1c2ccccc2C(=O)c2c(O)c(O)cc(O)c21` [Compound 37, Purpurin]: the IC50 in experiment [2] was more than 63 µM.

As for `CCCCN1CCC(COC(=O)c2cc(Cl)c(N)c3c2OCCO3)CC1` [Compound 59, SB 204070], the IC50 in experiment [1] is more than 100 µM; in experiment [2] it was more than 63 µM.

As for `O=C(/C=C/c1ccccc1)c1ccc(O)cc1` [Compound 44, 4’-Hydroxychalcone], the values for the IC50 in experiment [1] and in experiment [2] were more than 100 µM and more than 63 µM, respectively.

The compound `CC1=CC(=O)c2ccccc2C1=O` [Compound 30, Menadione] displayed an IC50 in experiment [2] of more than 63 µM.

As for `CCCCC/C=C\C/C=C\C/C=C\C/C=C\CCCC(=O)O` [Compound 27, Arachidonic acid], the IC50 was more than 100 µM in experiment [1] and more than 63 µM in experiment [2].

`CCCCCCCCCCCCCCCCC(C(=O)O)C(O)(CC(=O)O)C(=O)O` (stereo not drawn) [Compound 7, Agaric acid]: the IC50 in experiment [1] was more than 100 µM; in experiment [2], more than 63 µM.

Regarding `CCOc1nc2cccc(C(=O)O)c2n1Cc1ccc(-c2ccccc2-c2nnn[nH]2)cc1` [Compound 56, Candesartan], the half-maximal inhibitory concentration (IC50) in experiment [1] was more than 100 µM; in experiment [2], more than 63 µM.

Regarding `CC[C@H]1OC(=O)[C@H](C)[C@@H](O[C@H]2C[C@@](C)(OC)[C@@H](O)[C@H](C)O2)[C@H](C)[C@@H](O[C@@H]2O[C@H](C)C[C@H](N(C)C)[C@H]2O)[C@](C)(O)C[C@@H](C)C(=O)[C@H](C)[C@@H](O)[C@]1(C)O` [Compound 55, (−)-Erythromycin], the IC50 is more than 100 µM in experiment [1] and more than 63 µM in experiment [2].

With `CC1(C)CCC2=C(O1)c1ccccc1C(=O)C2=O` [Compound 15, β-laphachone], the IC50 in experiment [2] was more than 63 µM.

Compound `CCCCCCCCCCCCCCCC(=O)OC[C@H](O)[C@H]1OC(=O)C(O)=C1O` [Compound 20, L-Ascorbyl palmitate] showed an IC50 in experiment [2] of more than 63 µM.

`CC[n+]1c(-c2ccccc2)c2cc(N)ccc2c2ccc(N)cc21` [Compound 51, Ethidium bromide] returned an IC50 in experiment [2] of more than 63 µM.

As to `C=CC1=C(C)c2cc3[nH]c(cc4nc(cc5[nH]c(cc1n2)c(C)c5CCC(=O)O)C(CCC(=O)O)=C4C)c(C)c3C=C` [Compound 5, Protoporphyrin IX], the IC50 is more than 100 µM in experiment [1] and more than 63 µM in experiment [2].

The compound `Cc1cc(C(C#N)c2ccc(Cl)cc2)c(Cl)cc1NC(=O)c1cc(I)cc(I)c1O` (stereo not drawn) [Compound 16, Closantel] returned an IC50 in experiment [1] of more than 100 µM.

In the case of `CC1=CC(=O)c2c(O)cccc2C1=O` [Compound 21, Plumbagin], the IC50 in experiment [2] was more than 63 µM.

Regarding `CCCCCCCCCCCCCCCC[N+](C)(C)C` [Compound 11, Hexadecyltrimethylammonium bromide], the IC50 in experiment [1] was more than 100 µM; in experiment [2], more than 63 µM.

In turn, `C=C1CC[C@H](O)C/C1=C/C=C1\CCC[C@]2(C)[C@@H]([C@H](C)/C=C/[C@H](C)C(C)C)CC[C@@H]12` [Compound 46, Calciferol (Vtamin D2)] showed an IC50 in experiment [2] of more than 63 µM.

In the case of `COc1ccc(-c2ccc3cc(C(=O)O)ccc3c2)cc1C12CC3CC(CC(C3)C1)C2` [Compound 3, Adapalene], the IC50 in experiment [1] is more than 100 µM; in experiment [2], more than 63 µM.

`Oc1c(Cl)cc(Cl)cc1Sc1cc(Cl)cc(Cl)c1O` [Compound 29, Bithionol] had an IC50 in experiment [1] of more than 100 µM.

Regarding `Oc1ccc(Cl)cc1Cc1cc(Cl)ccc1O` [Compound 45, Dichlorophen], the IC50 is more than 100 µM in experiment [1] and more than 63 µM in experiment [2].

Turning to `CCc1oc2ccccc2c1C(=O)c1cc(Br)c(O)c(Br)c1` [Compound 40, Benzbromarone], the IC50 in experiment [1] is more than 100 µM; in experiment [2] it was more than 63 µM.

In experiment [2], `COc1cc(/C=C/C(=O)CC(=O)/C=C/c2ccc(O)c(OC)c2)ccc1O` [Compound 4, Curcumin] registered an IC50 of more than 63 µM.

`C=C1CC[C@H](O)C/C1=C/C=C1\CCC[C@]2(C)[C@@H]([C@H](C)CCCC(C)C)CC[C@@H]12` [Compound 41, Cholecalciferol (vtamin D3)]: the values for the IC50 in experiment [1] and in experiment [2] were more than 100 µM and more than 63 µM, respectively.

Regarding `CC(C)(C)NCC(O)c1ccc(O)c(CO)c1` (stereo not drawn) [Compound 57, Albuterol], the IC50 in experiment [1] was more than 100 µM; in experiment [2], more than 63 µM.

In turn, `CN(C)c1ccc(C(=C2C=CC(=[N+](C)C)C=C2)c2ccc(N(C)C)cc2)cc1` [Compound 34, Crystal violet] came in with an IC50 in experiment [2] of more than 63 µM.

As to `O=c1c(O)c(-c2ccc(O)c(O)c2)oc2c(O)c(O)cc(O)c12` [Compound 18, Gossypetin], the IC50 in experiment [2] is more than 63 µM.
